Experimental data taken from patent US20030113784A1, “Regulated expression of recombinant DNA” (priority 2001, published 2003).

System: β-galactosidase expression in C2C12 myoblasts cotransfected with Op8iME and Lac-R
Experiment: Time course of IPTG induction of β-galactosidase expression (chemiluminescent assay of cell lysates)
Format: cell-based
Details: 5 mM IPTG added sixteen hours post-transfection
Description: The time course of IPTG induction of β-galactosidase expression in one of the muscle enhancer and SV40 intron containing constructs was determined. The kinetics of Op8iME induction in C2C12 myoblasts were plotted over the course of 48 hours. Op8iME and the Lac-R were transiently cotransfected into C2C12 myoblasts. Sixteen hours post-transfection, 5 mM IPTG was added. β-galactosidase expression was monitored in cell lysates by chemiluminescent assay (Promega) at a selection of time-points from 1 h to 48 h. IPTG-dependent induction of β-galactosidase began at 4h and increased over time, with a maximum peak at 24 h (FIG. 11).

## CC(C)S[C@@H]1O[C@H](CO)[C@H](O)[C@H](O)[C@H]1O [IPTG, isopropylthiogalactoside]
  time of maximum peak of IPTG-dependent induction of β-galactosidase: 24 h
time-points 1 h to 48 h
  start of IPTG-dependent induction of β-galactosidase: 4 h
